We go through 13 compounds from patent publication US20250296940A1, “ANNULATED 2-AMINO-3-CYANO THIOPHENES AND DERIVATIVES FOR THE TREATMENT OF CANCER” (Boehringer Ingelheim Int'l GmbH Corp., priority 2021, published 2025).

The target of data set [1] is T1, protein-protein interaction between SOS1 and KRAS G12C (Homo sapiens, UniProt P01116, C118S/C51S/C80L/G12C).
T1 construct: His6 (N); SOS1: in-house or Viva Biotech Ltd; host or cells: E. coli (KRAS)
Nature of the data set: KRAS::SOS1 AlphaScreen Binding Assay. The note with it: Table 20, compounds (I); 7.5 nM KRAS G12C, 10 μM GDP, 5 nM GST-SOS1. From the text: This assay can be used to examine the potency with which compounds according to the invention binding to KRAS G12C inhibit the protein-protein interaction between SOS1 and KRAS G12C. […] Low IC50 values in this assay setting are indicative of strong inhibition of protein-protein interaction between SOS1 and KRAS:
• GST-tagged SOS1 (564_1049_GST_TEV_ECO) produced in-house • GST-TEV-SOS1 (564-1049) is purchased from Viva Biotech Ltd. • The expression construct of KRAS G12C (amino acids 1-169 of reference sequence P01116-2 (uniprot), with additional mutations: C51S, C80L, and C118S) containing a C-terminal avi-tag was obtained by gene synthesis (GeneArt, Thermo Fisher) in donor vector (pDONR-221) and transferred by recombinant cloning into pDEST17 vector bearing an N-terminal His6-tag. The protein was expressed in E. coli and the purified protein was biotinylated with the E. coli biotin ligase (BirA) before usage. • GDP (Sigma Cat No G7127) • AlphaLISA Glutathione Acceptor Beads (PerkinElmer, Cat No AL109) • AlphaScreen Streptavidin Donor Beads (PerkinElmer Cat No 6760002) • Assay plates: Proxiplate-384 PLUS, white (PerkinElmer, Cat No 6008289)
7.5 nM (final assay concentration) KRAS G12C, 10 μM (final assay concentration) GDP and 5 nM (final assay concentration) GST-SOS1 are mixed in assay buffer prior to use and kept at room temperature.
AlphaLISA Glutathione Acceptor Beads and AlphaScreen Streptavidin Donor Beads are mixed in assay buffer at a concentration of 10 μg/mL (final assay concentration) each prior to use and kept at room temperature.
Compounds are diluted to a final start concentration of 100 μM and are tested in duplicate. Assay-ready plates (ARPs) are generated using an Access Labcyte Workstation with a Labcyte Echo 550 or 555 acoustic dispenser. For compound a start concentration of 100 μM, 150 nL of compound solution is transferred per well in 11 concentrations in duplicate with serial 1:5 dilutions.
The assay is run using a fully automated robotic system in a darkened room below 100 Lux. 10 μL of KRAS::SOS1 GDP mix is added into columns 1-24 to the 150 nL of compound solution (final dilution in the assay 1:100, final DMSO concentration 1%).
After 30 minutes incubation time 5 μL of bead mix is added into columns 1-23. Plates are kept at room temperature in a darkened incubator. After further 60 minutes incubation, the signal is measured using a PerkinElmer Envision HTS Multilabel Reader using the AlphaScreen specifications from PerkinElmer. Each plate contains the following controls: • diluted DMSO+KRAS::SOS1 GDP mix+bead mix • diluted DMSO+KRAS::SOS1 GDP mix
IC50 values are calculated and analyzed using a 4 parametric logistic model.
Tables of example compounds disclosed herein contain IC50 values determined using the above assay.

Data set [2] can be described thus: Metabolic (microsomal) stability assay. It is filed as in vitro ADME. The note with it: human liver microsomes 1 mg/mL, 1 μM compound, 37° C.; predicted clearance as percent of liver blood flow. As to the method:
The metabolic degradation of the test compound is assayed at 37° C. with pooled liver microsomes (mouse (MLM), rat (RLM) or human (HLM)). The final incubation volume of 48 μL per time point contains TRIS buffer (pH 7.5; 0.1 M), magnesium chloride (6.5 mM), microsomal protein (0.5 mg/mL for mouse/rat, 1 mg/mL for human specimens) and the test compound at a final concentration of 1 μM. Following a short preincubation period at 37° C., the reactions are initiated by addition of 12 μL beta-nicotinamide adenine dinucleotide phosphate, reduced form (NADPH, 10 mM) and terminated by transferring an aliquot into solvent after different time points (0, 5, 15, 30, 60 min). Additionally, the NADPH-independent degradation is monitored in incubations without NADPH, terminated at the last time point by addition of acetonitrile. The quenched incubations are pelleted by centrifugation (4,000 rpm, 15 min). An aliquot of the supernatant is assayed by LC-MS/MS to quantify the concentration of parent compound in the individual samples.
In vitro intrinsic clearance (CLint, in vitro) is calculated from the time course of the disappearance of the test drug during the microsomal incubation. Each plot is fitted to the first-order elimination rate constant as C(t)=C0*exp(−ke*t), where C(t) and C0 are the concentration of unchanged test drug at incubation time t and that at preincubation and ke is the disappearance rate constant of the unchanged drug. Subsequently, CLint, in vitro (μL min^−1·amount protein) values are converted to predicted CLint,in vivo (mL min^−1·kg^−1) from incubation parameters according to the equation CLint, in vivo=CLint, in vitro×(incubation volume (ml)/amount protein (mg))×(amount protein (mg)/g liver tissue)×(liver weight/body wt.).
For better across species comparison the predicted clearance is expressed as percent of the liver blood flow [% QH](mL min^−1 kg^−1) in the individual species. In general, high stability (corresponding to low % QH) of the compounds across species is desired.
Metabolic stability data obtained with the disclosed assay in HLM for a selection of compounds (I) according to the invention: […]

For data set [3], the system named is NCI-H2122 cells (NSCLC, G12C). Nature of the data set: NCI-H2122 CTG proliferation assay (120 h). It is filed as cell-based. The note with it: Homo sapiens, NCI-H2122, CellTiter-Glo. As for the experimental part: The CTG assay is designed to measure quantitatively the proliferation of NCI-H2122 cells (ATCC CRL-5985), using the CellTiter Glow Assay Kit (Promega G7571). Cells are grown in RPMI medium (ATCC) supplemented with Fetal Calf Serum (Life Technologies, Gibco BRL, Cat. No. 10270-106). On “day 0” 200 NCI-H2122 cells are seeded in 60 μL RPMI ATCC+10% FCS+ Penstrep in a black 384-well plate, flat and clear bottom (Greiner, PNr. 781091). Cells are then incubated in the plates at 37° C. in a CO2 incubator overnight. On day 1, compounds (10 mM stock in DMSO) are added with the ECHO acoustic liquid handler system (Beckman Coulter), including DMSO controls. Plates are incubated for 120 h, and cell viability is measured using CellTiter-Glo luminescent cell viability reagent (Promega product code G7570). Viability (stated as percent of control) is defined as relative luminescence units RLU of each well divided by the RLU of cells in DMSO controls. IC50 values are determined from viability measurements by non-linear regression using a four parameter model.
IC50 values of representative compounds according to the invention measured with these assays in the indicated cell lines: […]

T1 sequence (P01116 1-169 isoform P01116-2 G12C/C51S/C80L/C118S): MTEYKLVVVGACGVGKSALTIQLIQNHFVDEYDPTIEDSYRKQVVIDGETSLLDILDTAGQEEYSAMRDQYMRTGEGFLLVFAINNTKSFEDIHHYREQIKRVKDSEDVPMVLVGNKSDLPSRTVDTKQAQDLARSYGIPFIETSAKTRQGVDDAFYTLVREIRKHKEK

The compound `C=C(F)C(=O)N1[C@@H](C)CN(c2cc(O[C@@H](C)[C@@H]3CCCN3C)nc(-c3onc4c3CCC[C@@]43CCCc4sc(N)c(C#N)c43)n2)C[C@@H]1C` [Ia-1] came in with a half-inhibitory concentration (IC50) in data set [1] of 1.6 nM. Also, in data set [2], the “HLM QH” value is <24%.

`C=CC(=O)N1[C@@H](C)CN(c2cc(O[C@@H](C)[C@@H]3CCCN3C)nc(-c3onc4c3CCC[C@@]43CCCc4sc(N)c(C#N)c43)n2)C[C@@H]1C` [Ia-2]: the 50% inhibitory concentration (IC50) in data set [1] is < 1.5 nM; in data set [3] it was 2 nM. Moreover, the “HLM QH” value in data set [2] is <24%.

For the compound `C=C(F)C(=O)N1[C@@H](C)CN(c2cc(-c3onc4c3CCC[C@@]43CCCc4sc(N)c(C#N)c43)nc(O[C@@H](C)[C@@H]3CCCN3C)n2)C[C@@H]1C` [Ia-3], the half-maximal inhibitory concentration (IC50) amounted to 4 nM in data set [1] and 96 nM in data set [3]. Also, the “HLM QH” value in data set [2] was 41%.

As for `C=CC(=O)N1[C@@H](C)CN(c2cc(-c3onc4c3CCC[C@@]43CCCc4sc(N)c(C#N)c43)nc(O[C@@H](C)[C@@H]3CCCN3C)n2)C[C@@H]1C` [Ia-4], the IC50 stood at 1.6 nM in data set [1] and 4 nM in data set [3]. For the same compound, the “HLM QH” value in data set [2] is on record as 28%.

In the case of `C[C@H](Oc1cc(N2C[C@H](C)N(C(=O)/C=C/CF)[C@@H](C)C2)nc(-c2noc3c2CCC[C@@]32CCCc3sc(N)c(C#N)c32)n1)[C@@H]1CCCN1C` [Ib-1], the values for the half-inhibitory concentration (IC50) in data set [1] and in data set [3] were 1.7 nM and 29 nM, respectively. Further, in data set [2], the “HLM QH” value is <24%.

Take `C=CC(=O)N1CCN(c2cc(O[C@@H](C)[C@@H]3CCCN3C)nc(-c3noc4c3CCC[C@@]43CCCc4sc(N)c(C#N)c43)n2)CC12CC2` [Ib-2]: the half-maximal inhibitory concentration (IC50) worked out at 1.3 nM in data set [1] and 19 nM in data set [3]. The “HLM QH” value in data set [2] was <24%.

In data set [1], `C=CC(=O)N1[C@@H](C)CN(c2cc(O[C@@H](C)[C@@H]3CCCN3C)nc(-c3noc4c3CCC[C@@]43CCCc4sc(N)c(C#N)c43)n2)C[C@@H]1C` [Ib-3] returned an IC50 of 1.5 nM. Moreover, the “HLM QH” value in data set [2] is listed as 34%.

Compound `C=CC(=O)N1[C@@H](C)CN(c2cc(-c3noc4c3CCC[C@@]43CCCc4sc(N)c(C#N)c43)nc(O[C@@H](C)[C@@H]3CCCN3C)n2)C[C@@H]1C` [Ib-4] returned an IC50 in data set [1] of 1.4 nM. Moreover, the “HLM QH” value in data set [2] is recorded as 45%.

Turning to `C=C(F)C(=O)N1[C@@H](C)CN(c2cc(O[C@@H](C)[C@@H]3CCCN3C)nc(-c3noc4c3CCC[C@@]43CCCc4sc(N)c(C#N)c43)n2)C[C@@H]1C` [Ib-5], the figures for the IC50 in data set [1] and in data set [3] were 1.6 nM and 21 nM, respectively. For the same compound, the “HLM QH” value in data set [2] is recorded as <24%.

For `C=C(F)C(=O)N1[C@@H](C)CN(c2cc(-c3noc4c3CCC[C@@]43CCCc4sc(N)c(C#N)c43)nc(O[C@@H](C)[C@@H]3CCCN3C)n2)C[C@@H]1C` [Ib-6], the IC50 in data set [1] stood at 2.1 nM; in data set [3], 35 nM. The “HLM QH” value in data set [2] is listed as 72%.

As for `C[C@H](Oc1nc(-c2noc3c2CCC[C@@]32CCCc3sc(N)c(C#N)c32)cc(N2C[C@H](C)N(C(=O)/C=C/CF)[C@@H](C)C2)n1)[C@@H]1CCCN1C` [Ib-7], the IC50 was 3.1 nM in data set [1] and 190 nM in data set [3]. In addition, the “HLM QH” value in data set [2] is 64%.

Consider `C[C@H](Oc1nc(-c2noc3c2CCC[C@@]32CCCc3sc(N)c(C#N)c32)cc(N2C[C@H](C)N(C(=O)/C=C/c3cccnc3)[C@@H](C)C2)n1)[C@@H]1CCCN1C` [Ib-8], for which the 50% inhibitory concentration (IC50) in data set [1] amounted to 3.2 nM; in data set [3] it was 999 nM. Also, in data set [2], the “HLM QH” value is 49%.

Consider `COC/C=C/C(=O)N1[C@@H](C)CN(c2cc(-c3noc4c3CCC[C@@]43CCCc4sc(N)c(C#N)c43)nc(O[C@@H](C)[C@@H]3CCCN3C)n2)C[C@@H]1C` [Ib-9], for which the IC50 was 6.2 nM in data set [1] and 2260 nM in data set [3]. In data set [2], the “HLM QH” value was 76%.
